Experimental data from US20240376069A1, “COMPOUNDS AND METHODS FOR LABELING LIPIDATED NUCLEOTIDES” (The Research Foundation for The State University of New York, priority 2023, published 2024).

Tests used:
T7 RNA polymerase = T7 RNA polymerase (Escherichia phage T7, UniProt P00573)
Procedure: Using the T7P-EGFP constructed above as a template and rNTP as substrates, the reaction was carried out at 37° C. for 2 hours which was catalyzed by T7 RNA polymerase. After the reaction, the template DNA T7P-EGFP was degraded with DNase I. Finally, the RNA was precipitated and purified, and the transcription effect of the RNA was detected by agarose gel electrophoresis. The T7P-EGFP template sequence and HeLa genomic RNA were used as the control group.
EGFP-RNA was transcript with T7 transcription kit (Takara) in vitro. The system was kept at 37° C. for 2 hours. 1-4 extended to 6 hours. Then the templets were digested with DNase 1, 37° C. for 30 minutes. […] RNA concentration was determined with a Nanodrop One microvolume UV-Vis. spectrophotometer.

HEK293T cells = assay: In-cell fluorescent labelling of SelU-mediated tRNA geranylation, confocal imaging; assay type: cell-based
Procedure: The HEK293T cells were washed twice with PBS, and trypsin was added for 1 min. Then 2.0 mL DMEM medium was added to the mixed well, followed by centrifuged at 1,000 r.p.m for 5 min, and the supernatant was discarded. Fresh medium was added to resuspend the cell pellet and cells were seeded in a confocal dish at the density of 0.5×1 05, the cells were gently mixed using pipette, and then placed in CO2 incubator. 150 mM sterile NaCl solution was prepared as a diluent for DNA and Vigofect (Vigorous Biotechnology Beijing Co., Ltd.). The culture medium in the confocal dish was then replaced with fresh complete culture medium before transfection, and the culture was incubated at 37° C. under 5% CO2 atmosphere. […] Configure the transfection working solution. […] Next, 2.5 μl VigoFect was added to the diluent (total 100 μl), and the solution was mixed gently and placed at room temperature for 5 min. Next, the diluted VigoFect was added into the diluted DNA solution gently, and the resulting transfection working solution was incubated at room temperature for 15 min. Subsequently, the working solution was added to the cell culture, mixed gently and incubated for 24 h. […] Cells were washed with PBS 3 times and then fixed with 4% paraformaldehyde for 15 min, and subsequently permeabilized with 0.5% Triton X-100 for 15 min. […]

SelU = SelU (Escherichia coli, UniProt P33667); assay type: biochemical, E. coli; conditions: for modified RNA residues after click reaction and RNase cleavage (recognition by SelU): HPLC and MS-spec data
HeLa cells [1] = assay: Incorporation of i^6A into total RNA of eukaryotic cells, detected with PTAD-DBCO-FITC (8); assay type: cell-based
Procedure: Next, we will further test whether i^6A (4) can participate in the RNA transcription process in eukaryotic cells. First culture the HeLa cells in a six-well plate to 70%-80%. […] After 12 hours of culture, collect all cells and extract total RNA.
To the 1.5 mL Eppendorf tube containing PTAD-DBCO-FITC precursor (7, 10 μL, 10 mM solution in DMF) was added N-bromo succinimide (1.0 μL, 100 mM in DMF). The mixture was vortexed gently and formation of the light-red color was observed. The reagent was kept on ice and used for the i^6A-incorporated RNA labelling immediately. Labeling protocol is the same stated above.
HeLa cells was obtained from ATCC. HeLa cells were cultured in DMED medium with 10% fetal calf serum. Cells were maintained in a humidified incubator at 5% CO2 and 37° C. To label RNA in vivo, HeLa cells were cultured in 6-well plates to 70%-80%. […] Then it will be detected by agarose gel electrophoresis. […]
The i^6A-incorporated total RNA ([…], 20 ng/mL in DEPC water) was incubated with PTAD-DBCO-FITC ([…] of a 0.1 mM solution), shaken for 30 minutes at 0° C. The RNA was then analyzed through gel electrophoresis on a 1% agarose gel. […] Gels were analyzed by in-gel fluorescence measurements on a FluorChem® FC3 imager (Alpha Innotech). Fluorescence was measured with a blue light excitation wavelength (475 nm) and a green filter emission (537 nm).

HeLa cells [2] = assay: Cytotoxic assays of i^6A (4) towards HeLa cells; assay type: cell-based
Excerpt: In order to better detect the involvement of i^6A (4) in the transcription process of cellular RNA, we also tested the effect of i^6A (4) on cytotoxicity and optimized the concentration of i^6A (4) to treat cells.

[3] = Dynamic investigation of the Ene-ligation of i^6A with PTAD by proton NMR; assay type: physicochemical; conditions: i^6A 30 mM, PTAD 0.15 mmol, CD3CN/D2O (v/v, 1/1), room temperature, within 5 minutes
Procedure: Nucleoside i^6A (4, 10 mg, 0.03 mmol) were dissolved in CD3CN/D2O (1.0 mL, v/v=1:1, final concentration=30 mM). PTAD (5, 26 mg, 0.15 mmol) was then added to the solution (final concentration=150 mM), and the reaction mixture was allowed to stand at room temperature. The ^1H NMR spectra were recorded by proton NMR (400 MHz).
The nucleoside i^6A (10 mg, 0.03 mmol) was dissolved in a mixture of CD3CN and D2O (0.5 mL, volume-to-volume ratio of 4:1, resulting in a final concentration of 60 mM). Subsequently, 4-phenyl-3H-1,2,4-triazole-3,5(4H)-dione (PTAD, 26 mg, 0.15 mmol, equivalent to 5 times the amount of i^6A) was added to the solution (resulting in a final concentration of 300 mM). The reaction mixture was then allowed to stand at room temperature. The ^1H NMR spectra were obtained using a 400 MHz ^1H NMR instrument with CD3CN/D2O as the solvent.

[4] = Iodine-mediated cyclisation of nucleoside i^6A; assay type: physicochemical; conditions: optimized concentration of iodine reagent
Procedure: Model reactions of i^6A nucleoside (4). The model reactions were carried out in DMSO-d6 in order to facilitate in situ NMR characterization without further purification. i^6A (4, 0.15 mmol) was dissolved in DMSO-d6 (0.5 mL), and iodine (0.45 mmol) was added. The mixture was stirred at 37° C. for 5 minutes and was taken out for ^1H NMR.
The reactions were conducted in DMSO-d^6 to enable in situ NMR characterization without the need for additional purification. i^6A (4, 0.15 mmol) was dissolved in DMSO-d^6 (0.5 mL), and iodine (0.45 mmol in DMSO-d^6) was subsequently added to the solution. The mixture was then stirred at 37° C. for 5 minutes. After this incubation period, the reaction mixture was subjected to ^1H NMR, ^13C NMR, HPLC, UV and LC-MS analysis.

prenylated tRNA = assay: Direct fluorescent labelling of prenylated tRNA by Ene-ligation, in-gel fluorescence; conditions: 10 μM probe; total RNAs isolated from E. coli
Procedure: tRNA (1.0 mg) isolated from E. coli using Zymo purification kit strictly following the instruction protocol was dissolved in PBS buffer (0.1 M, pH=7.4) and the PTAD-DBCO-Cy5 probe (1.0 mM) generated by in-situ oxidation with N-bromosuccinimide (NBS, 1 M in DMF) was added in one portion at 4° C. The mixture was incubated at 4° C. for 15 min in a sterile tube. And excess fluorescent probe was removed by 3K filter (Millipore) and the resulting nucleic acid was analyzed by in-gel fluorescence (Scheme S8).

SelU, sequence (P33667 whole entry): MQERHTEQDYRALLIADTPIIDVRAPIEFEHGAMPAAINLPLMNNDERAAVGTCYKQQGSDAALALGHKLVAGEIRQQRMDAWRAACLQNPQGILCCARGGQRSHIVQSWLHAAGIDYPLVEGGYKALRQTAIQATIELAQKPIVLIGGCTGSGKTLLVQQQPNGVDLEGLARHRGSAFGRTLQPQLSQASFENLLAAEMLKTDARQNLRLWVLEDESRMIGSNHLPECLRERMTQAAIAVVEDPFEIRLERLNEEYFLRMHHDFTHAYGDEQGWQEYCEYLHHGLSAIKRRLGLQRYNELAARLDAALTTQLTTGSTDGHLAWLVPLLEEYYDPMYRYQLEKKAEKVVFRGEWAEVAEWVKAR
T7 RNA polymerase, sequence (P00573 whole entry): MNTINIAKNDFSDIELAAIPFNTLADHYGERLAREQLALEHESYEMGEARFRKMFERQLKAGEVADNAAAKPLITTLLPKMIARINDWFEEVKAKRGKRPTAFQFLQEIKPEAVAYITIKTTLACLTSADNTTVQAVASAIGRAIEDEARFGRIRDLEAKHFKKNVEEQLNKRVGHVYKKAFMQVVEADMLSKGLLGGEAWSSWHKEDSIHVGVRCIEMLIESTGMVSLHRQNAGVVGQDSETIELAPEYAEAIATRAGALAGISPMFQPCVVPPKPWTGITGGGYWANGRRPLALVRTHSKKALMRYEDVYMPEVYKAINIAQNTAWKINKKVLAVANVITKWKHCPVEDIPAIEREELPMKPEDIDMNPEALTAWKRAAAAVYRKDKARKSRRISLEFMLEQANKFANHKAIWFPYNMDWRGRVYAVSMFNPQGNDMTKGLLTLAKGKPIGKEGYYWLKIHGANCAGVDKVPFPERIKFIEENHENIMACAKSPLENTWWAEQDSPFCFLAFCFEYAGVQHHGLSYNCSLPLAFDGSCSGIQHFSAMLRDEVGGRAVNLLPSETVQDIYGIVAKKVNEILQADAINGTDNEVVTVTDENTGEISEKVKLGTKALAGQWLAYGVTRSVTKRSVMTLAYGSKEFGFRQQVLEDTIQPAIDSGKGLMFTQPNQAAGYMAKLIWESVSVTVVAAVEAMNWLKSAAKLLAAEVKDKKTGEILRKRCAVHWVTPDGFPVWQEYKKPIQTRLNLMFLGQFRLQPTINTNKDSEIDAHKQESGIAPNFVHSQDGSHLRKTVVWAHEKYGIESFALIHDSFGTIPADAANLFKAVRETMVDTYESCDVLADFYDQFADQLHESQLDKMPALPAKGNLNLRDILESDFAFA

## CC(C)=CCNc1ncnc2c1ncn2C1OC(COP(=O)(O)OP(=O)(O)OP(=O)(O)O)C(O)C1O (centres unmarked) [i^6ATP]
T7 RNA polymerase; compared with K4, preliminary experiments
  recognition efficiency of T7 RNA polymerase: significantly higher than that of K4
T7 RNA polymerase; compared with rATP
  recognition efficiency by T7 RNA polymerase: low comparing with rATP

## CC(C)=CCC/C(C)=C/COP(=O)(O)OP(=O)(O)O [Ge1, (E)-3,7-dimethylocta-2,6-dien-1-yldiphosphate Tetrabutylammonium Trimer, reference compound]
HEK293T cells; transfected SelU and 5s (tRNA^Lys), probe PTAD-DBCO-Cy5
  red fluorescence of geranylated tRNA in cells, direct labelling: clearly showed the red fluorescence

## CC(C)=CCCC(C)CCOP(=O)(O)OP(=O)(O)O (centres unmarked) [Ge2, 3,7-dimethyloct-6-en-1-yl pyrophosphate]
SelU
  modified RNA residues after click reaction and RNase cleavage (recognition by SelU): no modified RNA residues

## C/C(=C\COP(=O)(O)OP(=O)(O)O)CC/C=C(\C)CN=[N+]=[N-] [Ge5]
SelU
  fluorescent labelling of tRNA^Gln, Glu, Lys after SelU-mediated transfer of the ligand: efficient fluorescent signal of tRNA was observed
HEK293T cells; SelU co-transfected, probe DBCO-Cy5
  red fluorescence in cells, two-step ACT-Flu approach: strong red florescence

## C/C(=C\COP(=O)(O)OP(=O)(O)O)CC/C=C(\C)COC(=O)CCC(=O)N1Cc2ccccc2C#Cc2ccccc21 [Ge7]
SelU
  fluorescent labelling of tRNA^Gln, Glu, Lys after SelU-mediated transfer of the ligand: failed

## CC(C)=CCNc1ncnc2c1ncn2[C@@H]1O[C@H](CO)[C@@H](O)[C@H]1O [i^6A (4), N^6-(3-methylbut-2-enyl)-adenosine]
HeLa cells [1]; cells cultured in the presence of i^6A, none in control group
  fluorescence signal of total RNA after PTAD-DBCO-FITC (8) staining: significant fluorescence signal was detected
HeLa cells [1]; i^6A 800 μM
  fluorescence signal of total RNA after PTAD-DBCO-FITC (8) staining: weaker RNA fluorescence signal
HeLa cells [2]; HeLa cells
  cytotoxic concentration: 800 µM
HeLa cells [2]; concentration 800 μM
  effect on cell viability: cell viability will be significantly inhibited
HeLa cells [2]; concentration 2.0 mM
  effect on cells: significant inhibitory effect on cells
HeLa cells [2]; concentration within 400 μM
  effect on cell viability: little effect on cell viability
[3]
  conversion yield in reaction with PTAD: approximately 50%
[4]
  time to full conversion with iodine: less than 5 minutes

## CN1/C(=C/C=C/C=C/C2=[N+](CCCCCC(=O)NCCC(=O)N3Cc4ccccc4-c4c(nnn4CCOc4ccc(N5C(=O)N=NC5=O)cc4)-c4ccccc43)c3ccccc3C2(C)C)C(C)(C)c2ccccc21.[Cl-] [PTAD-DBCO-Cy5]
Prenylated tRNA
  fluorescent signal of total RNAs treated with the probe: a red fluorescent signal was observed

## CC(C)=CCCOP(=O)(O)OP(=O)(O)O [Ge3, 4-methylpent-3-en-1-yl Diphosphate Tetrabutyl Ammonium Trimer]
SelU
  modified RNA residues after click reaction and RNase cleavage (recognition by SelU): no modified RNA residues
